Measured values reported in patent publication US20210156844A1, “TMEM16A Modulation for Diagnostic or Therapeutic Use in Pulmonary Hypertension (PH)” (Bayer Aktiengesellschaft, priority 2017, published 2021).

Test system: hypoxia-exposed mice
Test: Chronic hypoxia-induced mouse model of PH, slow-release pellets
Type: in vivo
From the text: The experimental protocol is depicted in FIG. 12A. Male C57BL/6J mice (Charles River) at the age of 10 weeks were either placed into a hypoxic chamber (FiO2=0.1, n=16) for 4 weeks, or kept at normoxic conditions (control group, FiO2=0.21, n=8). According to the reports of Fagan et al. (Fagan, K A, et al. Am. J. Physiol. Lung Cell. Mol. Physiol. (2004) 287, L656-664) and Tuscherer et al. (Tuchscherer, H A, et al., J. Biomech. (2007) 40, 993-1001), a significant increase in the right ventricular systolic pressure (RVSP) and PA muscularization can be observed already after 14 days of hypoxia exposure. Therefore, mice subjected to hypoxia were randomized into two groups at the end of the second week. Eight mice received a subcutaneous slow-release pellet containing benzbromarone (Innovative Research of America, Sarasota Fla., USA) (HOX+BBR) and the other 8 mice received pellets with vehicle (HOX+Veh). The pellets ensured a stable blood concentration of the drug/vehicle over the next two weeks. At the end of week 4, all mice were subjected to in vivo hemodynamic measurements, followed by sacrifice and organ collection.
In mice, in vivo hemodynamics was performed under constant inhalation of 2% isoflurane/oxygen, using the closed chest technique through a small incision on the submandibular area. Body temperature was monitored and maintained at 37±1° C. A limb-lead ECG was recorded and the heart rate was kept constant to avoid changes in the sympathetic tone during the experiment. The right ventricle (RV) was catheterized via the right jugular vein using a 1.4 F Millar catheter (SPR-671, Millar, Houston Tex., USA) and right ventricular systolic pressure (RVSP) was measured continuously. Another catheter was inserted into the left carotid artery to monitor systemic blood pressure. After recording of stable values, the experiment was either continued with the assessment of the acute hemodynamic effects of benzbromarone (described above), or mice were sacrificed immediately for organ collection. […]
At the end of the hemodynamic measurements, animals were exsanguinated and the heart and lungs were isolated. […] Right ventricular hypertrophy was assessed by calculating the Fulton index, defined as RV weight/(LV+S weight).
Paraffin-embedded mouse and rat lung tissues were cut to 2 μm thin sections. Double immunohistochemical staining and quantification of the non-muscularized and muscularized arteries were made as previously described (Crnkovic, S, et al., Respir. Physiol. Neurobiol. (2011) 179, 342-345). […] Vessel remodeling in lung sections was quantified using semi-automated image analysis software (Visiopharm, Hoersholm, Denmark). […] The percentage of non-muscularized and muscularized pulmonary arteries, relative to the total number of pulmonary arteries, was calculated. […]

[1] = subcutaneous slow-release pellet weeks 2-4 of 4 weeks hypoxia, vs HOX+Veh

CCc1oc2ccccc2c1C(=O)c1cc(Br)c(O)c(Br)c1 [benzbromarone, (2-Ethyl-3-benzofuranyl)-(3,5-dibrom-4-hydroxyphenyl)ketone]
PCNA positive nuclei in the medial layer of the PA (hypoxic mice, lung sections (not shown)): reduced number | hypoxia-induced muscularization of pulmonary arteries (ratio of fully vs non-muscularised arteries compared to HOX+Veh): reversed | Fulton index [1]: lowered | RVSP [1]: lowered
